Legend:
human NPY Y5 receptor [1] = target: T1, human NPY Y5 receptor (Homo sapiens, UniProt Q15761); assay: Affinity for NPY Y5 receptor ([125I] peptide YY binding, CHO cell membranes); conditions: inhibition of specific [125I] peptide YY binding, membranes of CHO cells expressing NPY Y5 receptor
T1 construct: expressed in transfected cells
T1 sequence (Q15761 1-445): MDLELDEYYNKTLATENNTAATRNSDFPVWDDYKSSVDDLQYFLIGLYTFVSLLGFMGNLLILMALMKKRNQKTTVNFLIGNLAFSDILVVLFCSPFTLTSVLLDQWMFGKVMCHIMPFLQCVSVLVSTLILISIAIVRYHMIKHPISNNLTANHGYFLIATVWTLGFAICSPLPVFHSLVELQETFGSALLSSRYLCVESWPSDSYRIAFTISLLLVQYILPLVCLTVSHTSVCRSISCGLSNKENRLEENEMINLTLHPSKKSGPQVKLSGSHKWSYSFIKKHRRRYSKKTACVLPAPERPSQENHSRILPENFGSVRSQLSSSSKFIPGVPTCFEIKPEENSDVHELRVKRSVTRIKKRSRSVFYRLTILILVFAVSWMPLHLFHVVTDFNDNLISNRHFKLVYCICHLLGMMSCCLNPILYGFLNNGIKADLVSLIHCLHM
Excerpt: Experiment 1 Affinity for NPY Y5 Receptor
cDNA sequence encoding a human NPY Y5 receptor (WO096/16542) was cloned in the expression vector pME18S (Takebe et al. Mol. Cell. Biol. 8, 8957). The obtained expression vector was transfected into a host CHO cells by using a Lipofect AMINE reagent (Trademark, Gibco BRL Co., Ltd.) according to an instruction protocol to obtain the cells that stably express NPY Y5 receptor.
The membranes prepared from the above CHO cells expressing NPY Y5 receptor, the compound of the present invention and 30,000 cpm [^125I] peptide YY (60 pM of final concentration: Amersham) were incubated in the assay buffer (20 mM HEPES-Hanks buffer containing 0.1% bovine serum albumin, pH 7.4) at 25° C. for 2 hours, and then the mixture was filtered with a glassfilter GF/C treated with polyethyleneimine. After the glassfilter was washed with 50 mM Tris-HCl buffer (pH 7.4), the radioactivity on the filter was measured with a gamma counter. The non-specific binding was detected in the presence of 200 nM of peptide YY. The 50% inhibitory concentration of the test compound against the specific peptide YY binding (IC50 value) was calculated (Inui, A. et al. Endocrinology 131, 2090-2096 (1992)).

human NPY Y5 receptor [2] = target: T1, human NPY Y5 receptor; assay: cAMP production inhibitory activity in CHO cells; format: cell-based; conditions: against 50 nM NPY inhibition of forskolin stimulated cAMP, CHO cells expressing human NPY Y5 receptor
Description: Experiment 2 cAMP production inhibitory activity in CHO cells
After CHO cells expressing human NPY Y5 receptor were incubated in the presence of 2.5 mM isobutylmethylxanthine (SIGMA) at 37° C. for 20 min., the compound of the present invention was added and incubated for 5 min. Then, 50 nM NPY and 10 μM forskolin (SIGMA) were added to the cells and incubated for 30 min. After the reaction was terminated by adding 1N HCl, the amount of cAMP in the supernatant was measured with EIA kit (Amersham LIFE SCIENCE).

SMILES: CCCc1ccc(NC(=O)C2CCC(NS(=O)(=O)C(C)(C)C)CC2)cc1 (stereo not drawn) [Ia-10]
- IC50 (human NPY Y5 receptor [1]): 0.47 nM
- IC50 (human NPY Y5 receptor [2]): 2.7 nM

SMILES: CC(C)c1ccc(NC(=O)C2CCC(NS(=O)(=O)C(C)(C)C)CC2)cc1 (stereo not drawn) [Ia-11]
- IC50 (human NPY Y5 receptor [1]): 0.64 nM
- IC50 (human NPY Y5 receptor [2]): 7.2 nM

SMILES: CC(C)(C)c1ccc(NC(=O)C2CCC(NS(=O)(=O)C(C)(C)C)CC2)cc1 (stereo not drawn) [Ia-13]
- IC50 (human NPY Y5 receptor [1]): 1.5 nM
- IC50 (human NPY Y5 receptor [2]): 3.3 nM

SMILES: CC(C)(C)S(=O)(=O)NC1CCC(C(=O)Nc2ccc(Cl)cc2)CC1 (stereo not drawn) [Ia-14]
- IC50 (human NPY Y5 receptor [1]): 4.8 nM
- IC50 (human NPY Y5 receptor [2]): 28 nM

SMILES: CC(C)(C)S(=O)(=O)NC1CCC(C(=O)Nc2ccc(F)c(F)c2F)CC1 (stereo not drawn) [Ia-24]
- IC50 (human NPY Y5 receptor [1]): 5.2 nM
- IC50 (human NPY Y5 receptor [2]): 74 nM

SMILES: C[C@@H]1CN(c2ccc(NC(=O)C3CCC(NS(=O)(=O)C(C)(C)C)CC3)cc2Cl)C[C@H](C)O1 (stereo partly drawn) [Ia-25]
- IC50 (human NPY Y5 receptor [1]): 1.1 nM
- IC50 (human NPY Y5 receptor [2]): 18 nM

SMILES: COc1ccc(NC(=O)C2CCC(NS(=O)(=O)C(C)(C)C)CC2)cc1F (stereo not drawn) [Ia-36]
- IC50 (human NPY Y5 receptor [1]): 1.6 nM
- IC50 (human NPY Y5 receptor [2]): 86 nM

SMILES: C[C@@H]1C[C@@H](C)CN(c2ccc(NC(=O)C3CCC(NS(=O)(=O)C(C)(C)C)CC3)cc2)C1 (stereo partly drawn) [Ia-38]
- IC50 (human NPY Y5 receptor [1]): 1 nM
- IC50 (human NPY Y5 receptor [2]): 2.2 nM

SMILES: CC(C)(C)S(=O)(=O)NC1CCC(C(=O)Nc2cccc(Cl)c2)CC1 (stereo not drawn) [Ia-41]
- IC50 (human NPY Y5 receptor [1]): 2.5 nM
- IC50 (human NPY Y5 receptor [2]): 9 nM

SMILES: C[C@@H]1CN(c2ccc(NC(=O)C3CCC(NS(=O)(=O)C(C)(C)C)CC3)cc2)C[C@@H](C)O1 (stereo partly drawn) [Ia-42]
- IC50 (human NPY Y5 receptor [1]): 3.6 nM
- IC50 (human NPY Y5 receptor [2]): 20 nM

SMILES: C[C@@H]1CN(S(=O)(=O)c2ccc(NC(=O)C3CCC(NS(=O)(=O)C(C)(C)C)CC3)cc2)C[C@H](C)O1 (stereo partly drawn) [Ia-44]
- IC50 (human NPY Y5 receptor [1]): 4.8 nM
- IC50 (human NPY Y5 receptor [2]): 27 nM

SMILES: CCOCCN(CCOCC)c1ccc(NC(=O)C2CCC(NS(=O)(=O)C(C)(C)C)CC2)cc1 (stereo not drawn) [Ia-45]
- IC50 (human NPY Y5 receptor [1]): 4.8 nM
- IC50 (human NPY Y5 receptor [2]): 42 nM

SMILES: Cc1ccc2nc(-c3ccc(NC(=O)C4CCC(NS(=O)(=O)C(C)(C)C)CC4)cc3)sc2c1 (stereo not drawn) [Ia-46]
- IC50 (human NPY Y5 receptor [1]): 0.87 nM
- IC50 (human NPY Y5 receptor [2]): 8.3 nM

SMILES: CC(C)[C@@H]1CN(c2ccc(NC(=O)C3CCC(NS(=O)(=O)C(C)(C)C)CC3)cc2)CCO1 (stereo partly drawn) [Ia-47]
- IC50 (human NPY Y5 receptor [1]): 0.82 nM
- IC50 (human NPY Y5 receptor [2]): 3.8 nM

SMILES: CCC1(CC)CN(c2ccc(NC(=O)C3CCC(NS(=O)(=O)C(C)(C)C)CC3)cc2)CCO1 (stereo not drawn) [Ia-48]
- IC50 (human NPY Y5 receptor [1]): 1.2 nM
- IC50 (human NPY Y5 receptor [2]): 6.1 nM

SMILES: CC(C)S(=O)(=O)NC1CCC(C(=O)Nc2ccc(N3C[C@@H](C)O[C@@H](C)C3)c(F)c2)CC1 (stereo partly drawn) [Ia-49]
- IC50 (human NPY Y5 receptor [1]): 2.6 nM
- IC50 (human NPY Y5 receptor [2]): 83 nM

SMILES: CC(C)(C)S(=O)(=O)NC1CCC(C(=O)Nc2ccc(N3CCC(=O)CC3)cc2)CC1 (stereo not drawn) [Ia-52]
- IC50 (human NPY Y5 receptor [1]): 1.9 nM
- IC50 (human NPY Y5 receptor [2]): 22 nM

SMILES: CC(C)(C)S(=O)(=O)NC1CCC(C(=O)Nc2ccc(C(=O)c3ccccc3)cc2)CC1 (stereo not drawn) [Ia-53]
- IC50 (human NPY Y5 receptor [1]): 0.22 nM
- IC50 (human NPY Y5 receptor [2]): 8.1 nM

SMILES: C[C@@H]1CN(S(=O)(=O)c2cccc(NC(=O)C3CCC(NS(=O)(=O)C(C)(C)C)CC3)c2)C[C@H](C)O1 (stereo partly drawn) [Ia-55]
- IC50 (human NPY Y5 receptor [1]): 1.1 nM
- IC50 (human NPY Y5 receptor [2]): 27 nM

SMILES: CC(C)(O)c1ccc(NC(=O)C2CCC(NS(=O)(=O)C(C)(C)C)CC2)cc1 (stereo not drawn) [Ia-56]
- IC50 (human NPY Y5 receptor [1]): 2.3 nM
- IC50 (human NPY Y5 receptor [2]): 96 nM

SMILES: CC(O)(c1ccccc1)c1ccc(NC(=O)C2CCC(NS(=O)(=O)C(C)(C)C)CC2)cc1 (stereo not drawn) [Ia-57]
- IC50 (human NPY Y5 receptor [1]): 0.93 nM
- IC50 (human NPY Y5 receptor [2]): 31 nM

SMILES: CC(C)(C)S(=O)(=O)Nc1ccc(NC(=O)C2CCC(NS(=O)(=O)C(C)(C)C)CC2)cc1 (stereo not drawn) [Ia-58]
- IC50 (human NPY Y5 receptor [1]): 2.5 nM
- IC50 (human NPY Y5 receptor [2]): 110 nM

SMILES: CC(C)(C)S(=O)(=O)NC1CCC(C(=O)Nc2cnc(-c3ccccc3)cn2)CC1 (stereo not drawn) [Ia-59]
- IC50 (human NPY Y5 receptor [1]): 0.71 nM
- IC50 (human NPY Y5 receptor [2]): 16 nM

SMILES: CC(=O)c1cc2cc(NC(=O)C3CCC(NS(=O)(=O)C(C)(C)C)CC3)ccc2oc1=O (stereo not drawn) [Ia-60]
- IC50 (human NPY Y5 receptor [1]): 0.95 nM
- IC50 (human NPY Y5 receptor [2]): 10 nM

SMILES: CN1C(=O)c2ccc(NC(=O)C3CCC(NS(=O)(=O)C(C)(C)C)CC3)cc2C1=O (stereo not drawn) [Ia-61]
- IC50 (human NPY Y5 receptor [1]): 0.68 nM
- IC50 (human NPY Y5 receptor [2]): 19 nM

SMILES: CC(C)(C)S(=O)(=O)NC1CCC(C(=O)Nc2ccc(NS(C)(=O)=O)cc2)CC1 (stereo not drawn) [Ia-63]
- IC50 (human NPY Y5 receptor [1]): 3.9 nM
- IC50 (human NPY Y5 receptor [2]): 370 nM

SMILES: CC(C)(C)S(=O)(=O)NC1CCC(C(=O)Nc2ccc(NS(=O)(=O)c3ccccc3)cc2)CC1 (stereo not drawn) [Ia-64]
- IC50 (human NPY Y5 receptor [1]): 7.1 nM
- IC50 (human NPY Y5 receptor [2]): 96 nM
